“Also recorded” adds a separate entry of the source. Peptide text beside a SMILES is read from it.
How the values were obtained:
burn wounds [1] = assay: Intravenous treatment in porcine vertical progression burn model; assay type: in vivo, pig; conditions: intravenous infusion 0.001, 0.01 or 0.1 mg/kg
Method: The vertical progression burn model (as shown in above topical experiment) was used to create burns on the backs of each of 4 pigs. Twenty burns (80° C./20 seconds) were made on the backs of each pig—one set of burns was made 8 hours prior to infusion, the second set was made 4 hours prior to infusion. Three pigs were treated with infusions of 0.001, 0.01 or 0.1 mg/kg of cNP8 and one pig was treated with an infusion of buffer, as control. Lyophilized cNP8 was reconstituted in PBS (11.6 mg/ml corrected-based on 75% pure) to get a 5 mM stock solution in the laboratory and filtered with a syringe filter with 0.22 um membrane. The concentration of filtered cNP8 solution was determined by reading OD280 and the concentration was calculated based on OD280=6.76 per mM cNP8. The cNP8 was diluted to 5 mM with PBS as necessary. The filtered cNP8 solution was aliquoted and stored at −80° C. Just before infusion, cNP8 was further diluted: a) 1:270 with PBS to get a 0.019 mM cNP8 solution. The injection amount was 3 ml/kg body weight of 0.019 mM cNP8 which is equal to 0.1 mg/kg body weight. b) 1:2700 with PBS to get a 0.0019 mM cNP8 solution. The injection was 3 ml/kg body weight of 0.0019 mM cNP8 which is equal to 0.01 mg/kg body weight. c) 1:27000 with PBS to get a 0.00019 mM cNP8 solution. The injection amount was 3 ml/kg body weight of 0.00019 mM cNP8 which is equal to 0.001 mg/kg body weight. […]

[2] = target: epidermal growth factor (EGF) (Homo sapiens, UniProt P01133); assay: Surface plasmon resonance (Biacore) binding to growth factor; conditions: plasmon surface resonance (Biacore T200)
epidermal growth factor (EGF), sequence (P01133 971-1023 limits assumed, species assumed): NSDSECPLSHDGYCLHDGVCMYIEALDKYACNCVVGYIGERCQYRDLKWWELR
Method: (§1) To study the binding activities of these peptides, real time interactions of P12, P46, and cNP8 with growth factors were determined by plasmon surface resonance (Biacore T200).

[3] = target: insulin-like growth factor-1 (IGF-1) (Homo sapiens, UniProt P05019); assay: as above; conditions: plasmon surface resonance (Biacore T200)
insulin-like growth factor-1 (IGF-1), sequence (P05019 49-118, species assumed): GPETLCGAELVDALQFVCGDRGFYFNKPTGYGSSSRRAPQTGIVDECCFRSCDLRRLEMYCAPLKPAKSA
Method: as §1

[4] = target: Transforming Growth Factor-Beta1 (TGF-β1) (Homo sapiens, UniProt P01137); assay: as above; conditions: plasmon surface resonance (Biacore T200)
Transforming Growth Factor-Beta1 (TGF-β1), sequence (P01137 279-390 limits assumed, species assumed): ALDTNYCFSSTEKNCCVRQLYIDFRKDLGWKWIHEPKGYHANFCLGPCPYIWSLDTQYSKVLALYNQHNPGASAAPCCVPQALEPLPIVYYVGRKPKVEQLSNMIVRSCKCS
Method: as §1

[5] = test system: Adult human dermal fibroblasts CF31 cells; assay: Fibroblast metabolism (XTT) assay with 1 nM PDGF-BB, 6 days; assay type: cell-based; conditions: FIG. 4, XTT
Method: Adult human dermal fibroblasts CF31 cells at 1000 cells/well were seeded in a collagen-coated 96-well plate in DMEM overnight, then 1 nM PDGF-BB with peptides at indicated doses was added and cells were incubated at 37° C. for 6 days. Then cell metabolism was measured by XTT assay by reading OD at 450 nm. Each point represents the mean of 6 replicates with a typical SD=5-10% around the mean (not shown for graft clarity).
Adult human dermal fibroblasts, CF31, at 1000 cells/well were incubated at 37° C. in a collagen-coated 96-well plate with DMEM, 1 nM PDGF-BB with peptides at indicated doses for 6 days and then cell metabolism was measured by XTT assay, reading OD at 450 nm. Data represent the mean of 6 replicates.
P12, P46, cNP7 and cNP8 were compared for their ability to promote the survival of adult human dermal fibroblasts in the presence of PDGF-BB. Adult human dermal fibroblasts at 1000 cells/well were incubated in a collagen-coated 96-well plate with DMEM, 1 nM PDGF-BB with peptides at indicated doses for 6 days and then cell metabolism was measured by XTT assay. Data represent the mean of 6 replicates (FIG. 4).

PDGF-BB = PDGF-BB (Homo sapiens, UniProt P01127); assay: Surface plasmon resonance (Biacore) binding to growth factor; conditions: plasmon surface resonance (Biacore T200)
PDGF-BB, sequence (P01127 82-190 limits assumed): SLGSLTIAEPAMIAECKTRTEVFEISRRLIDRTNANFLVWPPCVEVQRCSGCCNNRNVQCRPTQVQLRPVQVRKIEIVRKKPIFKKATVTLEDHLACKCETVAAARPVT
Method: as §1
In the Biacore2000 system, binding constants from kinetic data are determined by passing varying concentrations of FN peptides (analytes) over chip surfaces which are coupled with PDGF-BB (ligand), respectively. All kinetic experiments are carried out at 20° C. at a flow rate of 20 μl/min. For mass transport experiments, each analyte is injected at a fixed concentration and run at flow rates ranging from 5 to 75 μl/min. All analytes are injected over PDGF-BB ligand surfaces as well as over a control surface for 120 s, followed by 300 s of dissociation in running buffer. Regeneration of the sensor chip for subsequent injections is accomplished by pulse of 0.1% SDS. Mass transport experiments have detected little difference in response at different flow rates thus validating data from kinetic experiments. Sensorgrams are prepared and globally fitted using nonlinear least-squares analysis and numerical integration of the differential rate equations with the Biacore Bioevaluation software. […] Each data set, which consists of a series of sensorgrams from injections of different concentration of analyte over the same surface, is analyzed using kinetic models from Bioevaluation software.

burn wounds [6] = assay: Topical treatment of porcine deep partial-thickness burns (PLO gel); assay type: in vivo, pig; conditions: 48-hour debrided wounds, 10 days after wounding, vs control or cP12 (FIG. 6)
Method: Four female, 20-30 kg, domestic pigs were used for cutaneous wound procedures.
Study Protocol: The animals were sedated with Talazine (Tiletamine and Zolazepam, Fort Dodge Lab, Fort Dodge, Iowa) 5 mg/kg IM. The pigs were then intubated endotracheally and maintained under a surgical plane of anesthesia with isoflurane 0.5-2.5% in room air. The flank and back hair were clipped with electric hair clippers and the skin was scrubbed with a povidone iodine solution.
Standardized deep partial-thickness burns were created on the animals' backs and flanks by applying a 2.5-cm by 2.5-cm, 150-gram aluminum bar preheated in hot water to 80° C. The burns were created on either side of the vertebral column between the forelegs and hind legs. The heated bar was wiped dry just prior to application to prevent water droplets from creating a steam burn on the skin. The bar was then placed at a vertical position perpendicular to the skin's surface and applied for a period of 20 seconds with all pressure supplied by gravity. […] 24 burns were evenly distributed on both sides of the back of four pigs. […] Debridement was performed by gently rubbing dry gauze against the surface of the burn until the necrotic epidermis was peeled away from the entire burn surface. Interventions: On the back skin of each pig, equal sets of 4 burns were randomly treated with one of the 6 study treatments. […]

**Q.** How did the re-epithelialization (burn wounds [1]; day 10 post-injury (FIG. 7)) turn out when CC[C@H](C)[C@@H]1NC(=O)[C@H](Cc2c[nH]cn2)NC(=O)[C@H](C(C)C)NC(=O)[C@H](CO)NC(=O)CNC(=O)[C@H](CCCCN)NC(=O)[C@@H]2CCCN2C(=O)[C@H](CCCNC(=N)N)NC(=O)[C@H](Cc2c[nH]c3ccccc23)NC(=O)[C@H](CCCNC(=N)N)NC(=O)[C@H](CC(C)C)NC(=O)CNC(=O)[C@H](Cc2ccc(O)cc2)NC(=O)[C@H](CCCCN)NC(=O)CNC1=O [cNP8, HIGKYGLRWRPKGSV] (cyclo(HIGKYGLRWRPKGSV)) was run?
**A.** markedly increased; also recorded: increase of re-epithelialization

**Q.** What about the re-epithelialization (burn wounds [1]; day 14 post-injury (FIG. 8)) of the same molecule?
**A.** markedly increased; also recorded: increase of re-epithelialization

**Q.** What about the “binding to EGF” value [2] of the same molecule?
**A.** did not bind

**Q.** And the “binding to IGF-1” value [3]?
**A.** did not bind

**Q.** What about the “binding to TGF-β1” value [4] of the same molecule?
**A.** bind

**Q.** What about the “bioactivity compared with other peptides” value [5] of the same molecule?
**A.** equivalent or better bioactivity; also recorded: much higher bioactivity than that of P12

**Q.** And the “promotion of survival of adult human dermal fibroblasts in the presence of PDGF-BB” value [5]?
**A.** promoted the survival of adult human dermal fibroblasts

**Q.** What about the “binding to PDGF-BB” value (PDGF-BB) of the same molecule?
**A.** bind

**Q.** What about the re-epithelialization (burn wounds [6]) of the same molecule?
**A.** markedly increased

— patent US11548935B2 (NeoMatrix Therapeutics Inc., priority 2016, dated 2023)
